Calls of active or inactive are those of the source. Rule as the data show it, for most assays here: actives have a measured EC50 and inactives only a lower limit.
How the values were obtained:
[1] = target: T1, Heat shock factor protein 1 (Mus musculus, UniProt P38532); assay: inhibition of MG132-induced HSE-luciferase signal, confirmation, cell-based, NIH3T3, luminescence, dose retest (AID 2382); type: functional;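 also: NIH3T3 fibroblasts with HSF1-driven luciferase reporter stressed by proteasome inhibitor MG132; luminescence from HSF1-driven luciferase expression after 8 hours of MG132 stress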
T1 sequence (P38532 whole entry): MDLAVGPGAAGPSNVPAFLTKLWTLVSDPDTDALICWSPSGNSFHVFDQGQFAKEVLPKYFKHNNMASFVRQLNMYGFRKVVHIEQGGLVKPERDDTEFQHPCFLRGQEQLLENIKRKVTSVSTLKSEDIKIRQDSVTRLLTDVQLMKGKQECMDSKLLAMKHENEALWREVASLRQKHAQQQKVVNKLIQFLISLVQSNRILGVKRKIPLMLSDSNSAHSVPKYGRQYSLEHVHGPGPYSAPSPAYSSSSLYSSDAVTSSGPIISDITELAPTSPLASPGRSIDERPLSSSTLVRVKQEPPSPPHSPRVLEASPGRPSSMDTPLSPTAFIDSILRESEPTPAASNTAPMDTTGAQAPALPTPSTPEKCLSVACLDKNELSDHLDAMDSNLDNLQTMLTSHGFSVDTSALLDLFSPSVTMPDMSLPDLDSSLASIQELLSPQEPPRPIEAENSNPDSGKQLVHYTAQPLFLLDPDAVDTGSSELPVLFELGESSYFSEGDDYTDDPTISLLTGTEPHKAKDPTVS

[2] = target: Multidrug resistance protein CDR1 (Candida albicans, UniProt P43071); assay: CaCDR1 efflux pump inhibitors in yeast, dose response, S. cerevisiae AD1-8u, singleplex, Cherry Pick1 hits (AID 588606); type: functional
Protein RecA = target: T2, Protein RecA (Mycobacterium tuberculosis, UniProt P9WHJ3); assay: Fluorescence Cell-Free Homogeneous Dose Retest to Identify Inhibitors of RecA-Intein Splicing Activity. [Related pubchem assays (depositor defined):AID2097, AID2223, AID489010, AID492950]; type: functional
T2 sequence (P9WHJ3 whole entry): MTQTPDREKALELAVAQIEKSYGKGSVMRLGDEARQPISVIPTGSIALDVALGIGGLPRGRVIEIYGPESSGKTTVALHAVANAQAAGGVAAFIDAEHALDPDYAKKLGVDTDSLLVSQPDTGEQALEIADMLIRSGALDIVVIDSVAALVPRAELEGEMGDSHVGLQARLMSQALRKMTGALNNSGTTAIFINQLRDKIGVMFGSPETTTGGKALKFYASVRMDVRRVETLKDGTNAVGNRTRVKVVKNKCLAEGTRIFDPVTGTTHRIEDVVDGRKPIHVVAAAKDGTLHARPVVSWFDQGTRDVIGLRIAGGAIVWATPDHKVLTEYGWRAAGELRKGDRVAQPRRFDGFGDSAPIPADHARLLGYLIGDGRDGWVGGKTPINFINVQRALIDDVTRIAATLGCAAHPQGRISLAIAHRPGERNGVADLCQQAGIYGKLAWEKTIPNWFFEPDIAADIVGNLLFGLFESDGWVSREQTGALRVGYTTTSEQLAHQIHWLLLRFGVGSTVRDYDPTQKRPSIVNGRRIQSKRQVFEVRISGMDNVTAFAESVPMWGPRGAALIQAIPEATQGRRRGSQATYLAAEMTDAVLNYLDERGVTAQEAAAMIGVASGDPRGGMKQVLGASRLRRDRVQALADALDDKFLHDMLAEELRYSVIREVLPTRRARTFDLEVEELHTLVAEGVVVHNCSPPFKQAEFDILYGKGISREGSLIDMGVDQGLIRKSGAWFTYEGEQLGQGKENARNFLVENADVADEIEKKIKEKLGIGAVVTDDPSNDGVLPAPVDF

[3] = target: T3, Replicative DNA helicase DnaB (Mycobacterium tuberculosis, UniProt P9WMR3); assay: DnaB intein splicing inhibitors, dose response, biochemical, cell-free fluorescence (AID 449749); type: functional
T3 sequence (P9WMR3 whole entry): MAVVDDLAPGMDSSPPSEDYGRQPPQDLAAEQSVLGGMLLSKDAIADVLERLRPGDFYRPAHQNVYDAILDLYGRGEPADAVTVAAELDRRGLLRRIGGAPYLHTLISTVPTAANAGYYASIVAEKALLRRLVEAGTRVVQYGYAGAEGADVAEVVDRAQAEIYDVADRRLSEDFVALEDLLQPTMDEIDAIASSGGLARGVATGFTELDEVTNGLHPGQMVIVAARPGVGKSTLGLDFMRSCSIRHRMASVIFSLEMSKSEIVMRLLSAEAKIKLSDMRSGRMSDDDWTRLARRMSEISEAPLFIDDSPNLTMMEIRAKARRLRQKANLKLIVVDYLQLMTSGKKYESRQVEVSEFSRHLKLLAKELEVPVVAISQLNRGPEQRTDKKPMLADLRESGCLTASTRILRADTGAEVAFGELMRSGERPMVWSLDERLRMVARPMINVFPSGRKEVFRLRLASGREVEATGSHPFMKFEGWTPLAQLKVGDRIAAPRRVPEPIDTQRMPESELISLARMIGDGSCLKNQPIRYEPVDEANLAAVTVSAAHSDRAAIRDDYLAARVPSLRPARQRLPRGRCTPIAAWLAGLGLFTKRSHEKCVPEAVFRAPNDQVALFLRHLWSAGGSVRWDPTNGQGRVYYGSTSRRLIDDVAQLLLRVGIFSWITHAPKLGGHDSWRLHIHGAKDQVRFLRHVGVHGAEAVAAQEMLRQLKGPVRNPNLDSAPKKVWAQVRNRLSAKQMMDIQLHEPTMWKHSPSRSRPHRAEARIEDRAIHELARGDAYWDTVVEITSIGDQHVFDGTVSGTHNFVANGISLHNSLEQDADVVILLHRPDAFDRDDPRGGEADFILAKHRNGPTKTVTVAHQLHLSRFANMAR

BJ [4] = assay: cytotoxicity toward BJ-TERT fibroblasts, dose response, cell-based, RAS-independent, luminescence (AID 1933); type: functional; details: Homo sapiens
[5] = cytotoxicity in HEK-293T cells, dose response, cytotoxicity control for BCR NF-kB inhibitor project, luminescence, B-cell screen hits (AID 489021); type: functional, cell-based;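 also: HEK-293T cells carrying an NF-kB luciferase reporter; cells exposed to compound for about 14 hours before viability readout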
[6] = cytotoxicity toward DRD oncogenic fibroblasts, dose response, cell-based, non-viral oncogenic, luminescence (AID 1934); type: functional; details: Homo sapiens
BJ [7] = assay: cytotoxicity toward BJ-TERT-LT-ST fibroblasts, dose response, cell-based, RAS-independent, luminescence (AID 1935); type: functional; details: Homo sapiens;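 also: BJ fibroblasts immortalized with TERT plus LT and ST oncogenes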
[8] = test system: Streptococcus sp. 'group A'; assay: growth inhibition of control SK(-) GAS strain, dose response, counter-screen for streptokinase expression inhibitor project, luminescence, kanamycin, BacTiterGlo, confirmation (AID 1900); type: functional, organism-based
BJ [9] = assay: cytotoxicity toward Ras-transformed BJeLR fibroblasts, dose response, cell-based, alamar blue fluorescence, cherrypicked samples (AID 2631); type: functional; details: Homo sapiens;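 also: confirmatory dose-response assay in RAS-dependent BJ fibroblasts engineered with TERT, LT and ST, with cytotoxicity read by fluorescence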
Streptococcus = assay: Group A Streptococcus viability loss, dose response, counter-screen for streptokinase expression inhibitor project, luminescence, BacTiterGlo (AID 1915); type: functional, organism-based;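 also: potency for reduction of bacterial viability or growth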
Streptokinase A = target: T4, Streptokinase A (Streptococcus pyogenes serotype M1, UniProt P10520); assay: S. pyogenes streptokinase expression inhibitors, potency, dose response, plasminogen activation absorbance, OD405 (AID 1914); type: functional, Streptococcus pyogenes M1 GAS;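 also: secreted streptokinase activity via plasminogen activation per viability signal from cell pellet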
T4 sequence (P10520 whole entry): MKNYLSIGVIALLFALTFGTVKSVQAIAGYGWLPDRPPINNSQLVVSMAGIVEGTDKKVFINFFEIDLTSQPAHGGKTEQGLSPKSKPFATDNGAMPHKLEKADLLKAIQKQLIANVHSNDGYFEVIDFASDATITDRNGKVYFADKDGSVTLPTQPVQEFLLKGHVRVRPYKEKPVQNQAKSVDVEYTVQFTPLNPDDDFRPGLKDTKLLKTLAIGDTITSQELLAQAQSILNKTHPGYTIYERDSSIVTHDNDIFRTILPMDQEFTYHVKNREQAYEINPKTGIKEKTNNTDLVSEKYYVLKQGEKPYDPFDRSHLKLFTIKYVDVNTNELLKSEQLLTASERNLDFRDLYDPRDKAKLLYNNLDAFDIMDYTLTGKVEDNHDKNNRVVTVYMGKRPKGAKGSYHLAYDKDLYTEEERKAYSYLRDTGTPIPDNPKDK

BJ [10] = assay: cells; type: functional, cell-based; details: Homo sapiens
INS1 = assay: beta cell apoptosis inhibitors, cytokine rescue, dose response, luminescence, retest (AID 449756); type: functional, cell-based; details: Rattus norvegicus;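 also: cell death triggered by IL-1 beta plus TNF-alpha plus IFN-gamma mixture; protective hits raise ATP signal compared with cytokine alone wells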
[11] = target: T5, DNA dC->dU-editing enzyme APOBEC-3A (Homo sapiens, UniProt P31941); assay: SAR analysis of small molecule inhibitors of APOBEC3A DNA Deaminase via a fluorescence-based single-stranded DNA deaminase assay.; type: functional; details: read-out: IC50_Mean
[12] = target: T6, DNA dC->dU-editing enzyme APOBEC-3G (Homo sapiens, UniProt Q9HC16); assay: APOBEC3G deaminase inhibitors, SAR follow-up, biochemical, fluorescence, single-stranded DNA substrate (AID 602136); type: functional; details: read-out: IC50_Mean
[13] = target: T7, Apoptotic protease-activating factor 1 (Homo sapiens, UniProt O14727); assay: SAR analysis of small molecule Activators of Apaf-1 in a Fluorescent assay - set 2.; type: functional; details: read-out: EC50_Mean
T7 sequence (O14727 whole entry): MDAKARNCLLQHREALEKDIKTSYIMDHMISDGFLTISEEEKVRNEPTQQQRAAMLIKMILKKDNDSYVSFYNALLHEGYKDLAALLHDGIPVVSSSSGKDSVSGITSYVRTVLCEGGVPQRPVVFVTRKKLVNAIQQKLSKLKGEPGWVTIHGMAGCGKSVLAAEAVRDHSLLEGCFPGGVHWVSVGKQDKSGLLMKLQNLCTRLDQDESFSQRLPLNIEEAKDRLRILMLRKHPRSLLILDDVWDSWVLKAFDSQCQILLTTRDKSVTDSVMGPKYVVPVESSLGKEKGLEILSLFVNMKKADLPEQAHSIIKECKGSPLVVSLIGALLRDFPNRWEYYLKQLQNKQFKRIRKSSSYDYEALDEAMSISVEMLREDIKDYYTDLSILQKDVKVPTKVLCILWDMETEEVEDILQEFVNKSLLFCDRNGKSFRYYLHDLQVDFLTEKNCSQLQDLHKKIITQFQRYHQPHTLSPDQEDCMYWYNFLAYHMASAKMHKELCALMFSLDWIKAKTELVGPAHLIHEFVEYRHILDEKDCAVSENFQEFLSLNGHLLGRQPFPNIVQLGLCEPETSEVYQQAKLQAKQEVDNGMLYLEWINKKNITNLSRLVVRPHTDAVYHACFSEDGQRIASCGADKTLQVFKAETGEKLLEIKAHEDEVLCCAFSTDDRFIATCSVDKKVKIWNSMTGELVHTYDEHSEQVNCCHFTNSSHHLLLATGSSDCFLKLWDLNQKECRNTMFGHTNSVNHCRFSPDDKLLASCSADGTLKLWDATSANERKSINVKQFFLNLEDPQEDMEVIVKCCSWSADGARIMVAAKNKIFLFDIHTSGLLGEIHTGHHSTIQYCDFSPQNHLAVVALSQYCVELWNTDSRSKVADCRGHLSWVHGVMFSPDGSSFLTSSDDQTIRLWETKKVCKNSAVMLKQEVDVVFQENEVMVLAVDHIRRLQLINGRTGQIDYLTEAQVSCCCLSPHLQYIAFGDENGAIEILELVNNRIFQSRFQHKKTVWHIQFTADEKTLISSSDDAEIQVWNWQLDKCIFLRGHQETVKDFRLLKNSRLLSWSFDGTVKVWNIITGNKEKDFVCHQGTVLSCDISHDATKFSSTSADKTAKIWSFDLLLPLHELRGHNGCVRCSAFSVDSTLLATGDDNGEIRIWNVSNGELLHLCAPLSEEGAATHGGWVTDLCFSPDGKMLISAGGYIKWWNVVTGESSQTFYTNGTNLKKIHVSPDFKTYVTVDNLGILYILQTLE

[14] = SAR analysis of small molecule activators of Apaf-1 using a LZ-Caspase-9/Caspase-3 Fluorescent Selectivity assay - Set 2.; type: functional; details: read-out: EC50_Mean
[15] = target: T7, Apoptotic protease-activating factor 1; assay: SAR analysis of small molecule Activators of Apaf-1 in a Fluorescent assay.; type: functional; details: read-out: EC50_Mean
[16] = target: T5, DNA dC->dU-editing enzyme APOBEC-3A; assay: SAR analysis of small molecule inhibitors of APOBEC3A DNA Deaminase via a fluorescence-based single-stranded DNA deaminase assay - Set 2.; type: functional; details: read-out: IC50_Mean
[17] = target: T6, DNA dC->dU-editing enzyme APOBEC-3G; assay: SAR analysis of small molecule inhibitors of APOBEC3G DNA Deaminase via a fluorescence-based single-stranded DNA deaminase assay - Set 2.; type: functional; details: read-out: IC50_Mean
[18] = target: Serine/threonine-protein kinase pim-1 (Homo sapiens, UniProt P11309); type: functional
Sequence of Serine/threonine-protein kinase pim-1 (P11309 whole entry): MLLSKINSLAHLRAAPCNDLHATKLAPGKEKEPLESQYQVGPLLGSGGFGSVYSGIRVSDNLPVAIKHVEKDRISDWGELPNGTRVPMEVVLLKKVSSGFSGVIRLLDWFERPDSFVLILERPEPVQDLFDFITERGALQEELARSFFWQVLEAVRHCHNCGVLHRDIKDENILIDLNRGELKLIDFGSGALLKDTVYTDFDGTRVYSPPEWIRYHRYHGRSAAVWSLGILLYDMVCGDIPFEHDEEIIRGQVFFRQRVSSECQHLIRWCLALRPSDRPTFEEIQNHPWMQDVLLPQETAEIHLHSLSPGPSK

T5 sequence (P31941 whole entry): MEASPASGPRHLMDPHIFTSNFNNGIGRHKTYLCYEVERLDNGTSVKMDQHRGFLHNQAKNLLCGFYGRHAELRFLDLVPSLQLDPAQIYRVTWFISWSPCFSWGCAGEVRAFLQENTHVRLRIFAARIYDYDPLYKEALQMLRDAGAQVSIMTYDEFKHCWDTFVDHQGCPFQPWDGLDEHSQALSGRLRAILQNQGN
Sequence of Multidrug resistance protein CDR1 (P43071 whole entry, looked up): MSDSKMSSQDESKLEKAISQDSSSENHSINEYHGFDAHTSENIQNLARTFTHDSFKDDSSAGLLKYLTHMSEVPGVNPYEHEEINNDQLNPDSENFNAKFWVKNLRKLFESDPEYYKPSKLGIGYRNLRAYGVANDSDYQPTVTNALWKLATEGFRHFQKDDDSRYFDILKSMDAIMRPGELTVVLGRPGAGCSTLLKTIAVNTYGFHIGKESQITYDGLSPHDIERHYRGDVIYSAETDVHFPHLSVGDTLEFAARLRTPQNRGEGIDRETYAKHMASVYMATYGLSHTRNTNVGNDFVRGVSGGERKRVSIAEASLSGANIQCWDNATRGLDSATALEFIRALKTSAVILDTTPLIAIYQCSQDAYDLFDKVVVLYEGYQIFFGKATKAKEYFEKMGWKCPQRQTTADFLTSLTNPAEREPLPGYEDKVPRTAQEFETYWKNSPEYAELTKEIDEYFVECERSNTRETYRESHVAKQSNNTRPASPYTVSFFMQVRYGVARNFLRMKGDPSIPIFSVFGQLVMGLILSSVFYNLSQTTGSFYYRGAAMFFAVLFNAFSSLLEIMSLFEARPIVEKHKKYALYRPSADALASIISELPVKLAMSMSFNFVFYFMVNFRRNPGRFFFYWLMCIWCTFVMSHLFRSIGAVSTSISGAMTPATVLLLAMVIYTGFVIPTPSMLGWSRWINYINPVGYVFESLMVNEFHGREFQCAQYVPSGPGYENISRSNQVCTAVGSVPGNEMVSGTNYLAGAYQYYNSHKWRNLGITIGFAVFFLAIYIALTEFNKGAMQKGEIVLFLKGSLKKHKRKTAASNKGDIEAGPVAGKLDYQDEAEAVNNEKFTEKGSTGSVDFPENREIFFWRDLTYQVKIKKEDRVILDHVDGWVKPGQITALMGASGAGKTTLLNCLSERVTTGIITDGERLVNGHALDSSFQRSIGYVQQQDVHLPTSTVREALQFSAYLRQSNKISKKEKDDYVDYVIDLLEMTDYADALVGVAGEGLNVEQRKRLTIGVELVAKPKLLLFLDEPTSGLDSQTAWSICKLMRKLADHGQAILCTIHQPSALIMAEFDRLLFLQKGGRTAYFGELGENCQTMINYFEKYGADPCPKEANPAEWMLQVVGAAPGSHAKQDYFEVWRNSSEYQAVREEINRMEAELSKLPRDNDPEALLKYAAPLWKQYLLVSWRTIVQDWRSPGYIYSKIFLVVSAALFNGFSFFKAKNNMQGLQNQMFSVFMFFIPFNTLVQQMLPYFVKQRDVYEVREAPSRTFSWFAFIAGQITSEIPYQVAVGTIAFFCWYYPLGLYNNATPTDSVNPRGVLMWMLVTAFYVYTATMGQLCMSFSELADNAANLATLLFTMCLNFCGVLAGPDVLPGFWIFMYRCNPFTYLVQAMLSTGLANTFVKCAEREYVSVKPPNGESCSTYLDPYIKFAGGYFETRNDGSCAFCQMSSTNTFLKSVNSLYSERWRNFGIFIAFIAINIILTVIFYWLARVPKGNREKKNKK
T6 sequence (Q9HC16 whole entry): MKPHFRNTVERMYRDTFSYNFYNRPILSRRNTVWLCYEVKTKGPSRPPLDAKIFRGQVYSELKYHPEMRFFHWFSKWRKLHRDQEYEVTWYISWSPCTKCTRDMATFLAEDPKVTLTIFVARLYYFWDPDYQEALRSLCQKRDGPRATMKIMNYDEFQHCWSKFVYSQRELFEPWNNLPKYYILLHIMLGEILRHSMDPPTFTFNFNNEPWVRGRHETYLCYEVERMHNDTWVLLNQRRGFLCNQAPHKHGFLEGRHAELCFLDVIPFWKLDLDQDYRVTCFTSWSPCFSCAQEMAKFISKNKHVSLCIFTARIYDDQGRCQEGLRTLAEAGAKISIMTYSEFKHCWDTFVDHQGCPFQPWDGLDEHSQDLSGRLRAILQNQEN

O=C1C(Cc2ccccc2)Nc2ncnc(N3CCN(c4ccccc4)CC3)c2N1Cc1ccccc1 (stereo not given)
EC50 [1]: > 195 µM (not active)
EC50 [2]: 14.7 µM (active)

O=C(NC(=S)Nc1ccc2[nH]c(=O)[nH]c2c1)c1cncc(Br)c1
EC50 [2]: 2.09 µM (active)

CC1CCc2c(sc3nc(C(C)(C)C)nc(N4CCN(C(=O)CCl)CC4)c23)C1 (stereo not given)
EC50 (Protein RecA): 481 nM (active)
AC50 [3]: 2.45 µM (active)
EC50 (BJ [4]): 2.02 µM (active)
IC50 [5]: > 80 µM (inactive)
EC50 [6]: 5.42 µM (inconclusive)
EC50 (BJ [7]): 4.69 µM (inconclusive)
EC50 [8]: 2.96 µM (active)
EC50 (BJ [9]): 588 nM (active)
EC50 (Streptococcus): 14.1 µM (active)
EC50 (Streptokinase A): 1.79 µM (active)
EC50 (BJ [10]): 5.41 µM (inconclusive)
AC50 (INS1): 5.84 µM (active)

Cc1cc(Cl)cc2c1N[C@H](c1ccncc1)C1CC=CC21 (stereo not given in full)
IC50 [11]: > 99 µM (inactive)
IC50 [12]: > 99 µM (inactive)

CC(CN1CCCCC1)C(=O)O (stereo not given)
EC50 [13]: > 100 µM (inactive)
EC50 [14]: > 100 µM (inactive)

COc1ccc(C)cc1NC(=O)CCS(=O)(=O)c1ccc2c(c1)CC(C)N2C(=O)C1CC1 (stereo not given)
EC50 [15]: > 100 µM (inactive)

Cc1ccc(-c2csc3nnc(SCC(N)=O)n23)cc1
IC50 [16]: > 99 µM (inactive)
IC50 [17]: > 99 µM (inactive)

O=C(O)C1CC(c2cccc(Br)c2)=NO1 (stereo not given)
EC50 [13]: > 100 µM (inactive)
EC50 [14]: > 100 µM (inactive)

Cc1ccc2c(Nc3cc(OCc4ccccc4Br)ccc3Sc3ccc(O)cc3)ncnc2n1
Ki [18]: 5.01 µM (active)

Reference: ChEMBL document CHEMBL1201862, “PubChem BioAssay data set” (2004)
